Measured values reported in patent publication US20170181431A1, “HERBICIDAL COMPOSITIONS CONTAINING 4-AMINO-3-CHLORO-6-(4-CHLORO-2-FLUORO-3-METHOXYPHENYL) PYRIDINE-2-CARBOXYLIC ACID OR A DERIVATIVE THEREOF AND A CELL MEMBRANE DISRUPTOR HERBICIDE OR A DERIVATIVE THEREOF” (Dow AgroSciences LLC, priority 2015, published 2017).

Tested on: Conyza species (fleabane, ERISS)
Experiment: Field trial of post-emergence (foliar) herbicidal activity, percent weed control visually rated
Assay type: in vivo
Conditions: Cmpd 1 alone 5 g ae/ha, Table 2
From the text: Treatments consisted of the methyl ester of 4-amino-3-chloro-6-(4-chloro-2-fluoro-3-methoxyphenyl)pyridine-2-carboxylic acid (Cmpd 1) tankmixed with saflufenacil or paraquat. The form of compound of formula (I) was applied on an acid equivalent basis, and saflufenacil and paraquat were applied on an active ingredient basis. Saflufenacil was applied as a commercial formulation containing 700 grams per kilogram (g/kg). Paraquat was applied as a commercial formulation containing 200 g/L.
Field trials were conducted under standard field conditions. Plot sizes varied from 2 meters (m) wide by 5 m long. Treatments were applied with small plot backpack sprayers, using pressurized carbon dioxide (CO2) as propellant. Pressure varied from 40-45 pounds per square inch (PSI), with spray tips typically of a Flat Fan type applying water diluent at 100 liters per hectare (L/ha). Boom size was 2 m in width. Weed sizes varied, but all treatments were applied as post-emergence treatments to weeds from 2 leaf to 2 tiller growth stages varying from 2-15 inches in height. No additional adjuvant was mixed with the treatments applied in the field.
Results in Tables 1 to 2 are field trial results for foliar applied compositions. The values reported are percent (%) control visually rated. The predicted percent (%) weed contol was determined using Colby's equation.
The following abbreviations are used in Tables 1 to 2: ERISS=Conyza species (fleabane, ERISS) g ae/ha=grams acid equivalent per hectare g ai/ha=grams active ingredient per hectare Mean % weed control=observed value of percent (%) control rated visually Predicted mean % weed control=expected value of percent (%) control as calculated by Colby's equation Cmpd 1=methyl 4-amino-3-chloro-6-(4-chloro-2-fluoro-3-methoxyphenyl)pyridine-2-carboxylate, halauxifen-methyl, or ARYLEX® DAA=days after application

SMILES: COC(=O)c1nc(-c2ccc(Cl)c(OC)c2F)cc(N)c1Cl [Cmpd 1, methyl 4-amino-3-chloro-6-(4-chloro-2-fluoro-3-methoxyphenyl)pyridine-2-carboxylate]
- Cmpd 1 Mean % weed control (17DAA): 33.75%
- Cmpd 1 Mean % weed control (28DAA): 33.75%
- Cmpd 1 Mean % weed control (43DAA): 40%
